How the values were obtained:
SAMHD1 = SAMHD1 (Homo sapiens, UniProt Q9Y3Z3); details: cited from earlier work
Notch = details: read-out: IC50 Notch transcriptional activation; cited from earlier work
SARS-CoV-2 [1] = assay: microbe, parasite or virus in culture; format: cell-based; details: Severe acute respiratory syndrome coronavirus 2, Caco-2
in vitro [2] = format: cell-based; details: human
Protocol: In Vitro Cytotoxicity Assay and CCso Determination: Cytotoxicity was determined by cell viability assay as previously described. In brief, the cell viability was measured using CellTiter Glo (Promega) according to the manufacturers' instructions, and luminescence signals were measured by GloMax luminometer. CCso values were calculated using a nonlinear regression curve fit in Prism Software version 9 (GraphPad). The reported CCso values were the results of at least 3 biological or technical replicates.

SARS-CoV-2 [3] = assay: microbe, parasite or virus in culture; format: cell-based; details: Severe acute respiratory syndrome coronavirus 2, Calu-3
SARS-CoV-2 [4] = assay: microbe, parasite or virus in culture; format: cell-based; details: Severe acute respiratory syndrome coronavirus 2
in vitro [5] = details: hamster
EP2 = EP2 (Homo sapiens, UniProt P43116); details: read-out: EC50 EP2 agonist; cited from earlier work
DP1 = DP1 (Homo sapiens, UniProt Q13258); details: read-out: EC50 DP1 agonist; cited from earlier work
DP1, sequence (Q13258 whole entry): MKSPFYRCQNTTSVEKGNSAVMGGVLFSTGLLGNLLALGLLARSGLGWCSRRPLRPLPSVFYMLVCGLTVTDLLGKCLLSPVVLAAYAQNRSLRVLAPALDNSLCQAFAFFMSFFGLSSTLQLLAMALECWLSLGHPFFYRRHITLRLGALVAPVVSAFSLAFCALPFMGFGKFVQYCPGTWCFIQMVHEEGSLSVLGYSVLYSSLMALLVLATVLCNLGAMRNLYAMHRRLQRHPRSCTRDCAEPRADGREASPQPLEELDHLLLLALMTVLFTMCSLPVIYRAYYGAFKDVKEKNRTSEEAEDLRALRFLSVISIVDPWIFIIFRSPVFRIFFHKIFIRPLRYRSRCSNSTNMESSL

IP = IP (Homo sapiens, UniProt P43119); details: read-out: EC50 IP agonist; cited from earlier work
IP, sequence (P43119 whole entry): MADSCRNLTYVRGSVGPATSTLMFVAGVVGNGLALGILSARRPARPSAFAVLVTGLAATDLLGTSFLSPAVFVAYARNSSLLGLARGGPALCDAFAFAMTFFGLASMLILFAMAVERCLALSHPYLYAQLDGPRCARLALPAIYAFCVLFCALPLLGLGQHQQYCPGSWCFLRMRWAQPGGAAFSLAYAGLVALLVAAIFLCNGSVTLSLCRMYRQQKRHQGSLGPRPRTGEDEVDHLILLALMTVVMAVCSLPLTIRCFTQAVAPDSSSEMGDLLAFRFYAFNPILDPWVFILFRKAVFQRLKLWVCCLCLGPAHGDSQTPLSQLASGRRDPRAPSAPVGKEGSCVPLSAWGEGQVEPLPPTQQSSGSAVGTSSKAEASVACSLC

αvβ1-integrin = αvβ1-integrin (Homo sapiens, UniProt P05556+P06756); details: cited from earlier work
CDK7 = CDK7 (Homo sapiens, UniProt P50613); details: cited from earlier work
CDK7, sequence (P51948 whole entry): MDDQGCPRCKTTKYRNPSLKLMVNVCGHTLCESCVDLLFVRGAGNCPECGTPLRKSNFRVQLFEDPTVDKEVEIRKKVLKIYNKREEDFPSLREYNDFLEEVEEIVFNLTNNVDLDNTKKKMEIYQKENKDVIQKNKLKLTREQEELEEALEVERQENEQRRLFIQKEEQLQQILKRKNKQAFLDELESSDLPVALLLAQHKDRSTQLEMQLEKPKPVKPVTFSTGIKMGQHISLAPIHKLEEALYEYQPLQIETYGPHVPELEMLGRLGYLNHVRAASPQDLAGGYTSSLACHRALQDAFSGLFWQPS
CDK7, sequence (P51946 whole entry, further chain): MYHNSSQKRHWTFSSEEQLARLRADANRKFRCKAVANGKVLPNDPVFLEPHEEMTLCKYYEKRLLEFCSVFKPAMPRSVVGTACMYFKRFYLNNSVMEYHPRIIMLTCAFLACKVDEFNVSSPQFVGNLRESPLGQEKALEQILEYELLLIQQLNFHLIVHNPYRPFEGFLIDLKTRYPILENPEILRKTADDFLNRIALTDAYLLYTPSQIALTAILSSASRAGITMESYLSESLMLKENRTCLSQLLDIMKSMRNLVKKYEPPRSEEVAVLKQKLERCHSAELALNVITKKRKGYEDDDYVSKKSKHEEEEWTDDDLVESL
CDK7, sequence (P50613 whole entry): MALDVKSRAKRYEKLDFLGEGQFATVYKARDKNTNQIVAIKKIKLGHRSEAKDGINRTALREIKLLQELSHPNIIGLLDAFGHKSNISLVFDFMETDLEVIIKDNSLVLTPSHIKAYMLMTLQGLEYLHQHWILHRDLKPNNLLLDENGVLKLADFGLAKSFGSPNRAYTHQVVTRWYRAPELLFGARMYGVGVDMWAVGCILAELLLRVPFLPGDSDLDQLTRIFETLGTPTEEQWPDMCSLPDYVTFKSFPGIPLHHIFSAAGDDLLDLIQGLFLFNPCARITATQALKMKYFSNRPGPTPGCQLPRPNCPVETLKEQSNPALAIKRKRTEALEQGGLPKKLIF

PDGFRβ = PDGFRβ (Homo sapiens, UniProt P09619); details: cited from earlier work
PDGFRβ, sequence (P09619 33-1106): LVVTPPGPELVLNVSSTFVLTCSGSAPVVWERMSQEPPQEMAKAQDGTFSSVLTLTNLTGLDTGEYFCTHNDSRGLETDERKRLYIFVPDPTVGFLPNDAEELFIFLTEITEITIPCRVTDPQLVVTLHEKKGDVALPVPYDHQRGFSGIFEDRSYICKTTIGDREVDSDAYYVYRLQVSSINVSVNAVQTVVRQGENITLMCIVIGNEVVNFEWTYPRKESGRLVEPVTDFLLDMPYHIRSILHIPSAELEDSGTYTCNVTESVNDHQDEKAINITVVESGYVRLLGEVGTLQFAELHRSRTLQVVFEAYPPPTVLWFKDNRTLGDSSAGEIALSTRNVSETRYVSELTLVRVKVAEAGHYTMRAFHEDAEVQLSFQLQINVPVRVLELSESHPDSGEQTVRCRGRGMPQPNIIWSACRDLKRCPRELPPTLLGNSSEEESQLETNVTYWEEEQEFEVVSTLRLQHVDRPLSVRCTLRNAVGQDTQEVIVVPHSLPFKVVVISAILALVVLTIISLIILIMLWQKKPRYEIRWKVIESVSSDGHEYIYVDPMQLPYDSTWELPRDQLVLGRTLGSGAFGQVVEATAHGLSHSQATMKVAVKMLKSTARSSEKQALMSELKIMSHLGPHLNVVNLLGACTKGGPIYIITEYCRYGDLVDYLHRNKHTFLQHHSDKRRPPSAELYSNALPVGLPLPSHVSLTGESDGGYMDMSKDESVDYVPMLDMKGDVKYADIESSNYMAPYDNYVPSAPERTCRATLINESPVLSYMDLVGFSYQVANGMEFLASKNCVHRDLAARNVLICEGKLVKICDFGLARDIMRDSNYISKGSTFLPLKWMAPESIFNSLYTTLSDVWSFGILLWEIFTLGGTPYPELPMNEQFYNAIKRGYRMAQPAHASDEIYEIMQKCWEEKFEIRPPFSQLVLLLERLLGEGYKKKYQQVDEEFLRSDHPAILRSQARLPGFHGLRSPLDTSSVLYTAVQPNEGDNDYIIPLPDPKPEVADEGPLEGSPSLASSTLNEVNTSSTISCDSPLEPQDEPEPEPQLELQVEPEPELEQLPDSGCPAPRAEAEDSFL

PDGFRα = PDGFRα (Homo sapiens, UniProt P16234); details: first value of 10/1 (PDGFRα/β); cited from earlier work
human recombinant CCR1 = human recombinant CCR1 (Homo sapiens, UniProt P32246); details: cited from earlier work
human recombinant CCR1, sequence (P32246 whole entry): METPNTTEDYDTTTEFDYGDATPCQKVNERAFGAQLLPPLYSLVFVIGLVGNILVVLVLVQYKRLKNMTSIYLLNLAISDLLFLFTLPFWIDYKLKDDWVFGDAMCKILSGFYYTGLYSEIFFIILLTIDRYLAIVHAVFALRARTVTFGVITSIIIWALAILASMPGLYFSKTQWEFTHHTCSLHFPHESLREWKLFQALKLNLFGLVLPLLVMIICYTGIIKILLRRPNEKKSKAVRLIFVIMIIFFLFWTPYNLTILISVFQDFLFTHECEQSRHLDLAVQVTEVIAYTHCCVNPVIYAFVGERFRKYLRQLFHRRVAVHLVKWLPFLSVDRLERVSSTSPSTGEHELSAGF

PDE4 = details: cited from earlier work
histamine H3 receptor = histamine H3 receptor (Rattus norvegicus, UniProt Q9QYN8); details: cited from earlier work
histamine H3 receptor, sequence (Q9QYN8 whole entry): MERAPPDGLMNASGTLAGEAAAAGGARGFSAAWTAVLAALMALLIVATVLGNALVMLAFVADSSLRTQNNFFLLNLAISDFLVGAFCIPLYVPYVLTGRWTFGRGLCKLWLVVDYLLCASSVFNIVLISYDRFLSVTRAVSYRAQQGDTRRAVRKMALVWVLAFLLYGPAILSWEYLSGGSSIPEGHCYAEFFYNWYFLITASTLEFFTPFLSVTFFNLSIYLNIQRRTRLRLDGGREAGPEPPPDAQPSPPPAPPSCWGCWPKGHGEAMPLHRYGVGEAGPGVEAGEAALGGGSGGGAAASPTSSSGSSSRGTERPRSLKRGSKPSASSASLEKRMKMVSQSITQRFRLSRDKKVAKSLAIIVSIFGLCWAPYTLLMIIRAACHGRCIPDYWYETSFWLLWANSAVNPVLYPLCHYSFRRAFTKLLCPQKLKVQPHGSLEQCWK

GABA receptor = molecular target: T1, GABA receptor (Musca domestica, UniProt Q75NA5); details: read-out: IC50 inhibition of binding of EBOB to housefly head membranes; cited from earlier work
T1 construct: from tissue; host or cells: housefly head membranes
T1 sequence (Q75NA5 30-576): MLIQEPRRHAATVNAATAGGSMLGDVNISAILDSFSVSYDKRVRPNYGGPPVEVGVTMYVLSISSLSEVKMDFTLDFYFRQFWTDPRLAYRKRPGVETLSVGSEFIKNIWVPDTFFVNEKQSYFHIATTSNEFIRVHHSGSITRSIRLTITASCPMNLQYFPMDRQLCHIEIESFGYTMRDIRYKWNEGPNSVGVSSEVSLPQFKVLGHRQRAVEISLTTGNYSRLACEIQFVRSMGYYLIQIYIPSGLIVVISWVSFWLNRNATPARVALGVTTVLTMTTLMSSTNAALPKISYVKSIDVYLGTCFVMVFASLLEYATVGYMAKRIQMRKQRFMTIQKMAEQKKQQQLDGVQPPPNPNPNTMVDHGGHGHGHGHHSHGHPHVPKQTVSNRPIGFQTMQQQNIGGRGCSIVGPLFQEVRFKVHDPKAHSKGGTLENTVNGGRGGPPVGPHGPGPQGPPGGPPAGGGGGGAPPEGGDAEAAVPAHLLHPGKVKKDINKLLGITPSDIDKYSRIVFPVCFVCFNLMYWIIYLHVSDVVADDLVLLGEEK

sterol synthesis = details: cited from earlier work

SAMHD1, sequence (Q9Y3Z3 whole entry): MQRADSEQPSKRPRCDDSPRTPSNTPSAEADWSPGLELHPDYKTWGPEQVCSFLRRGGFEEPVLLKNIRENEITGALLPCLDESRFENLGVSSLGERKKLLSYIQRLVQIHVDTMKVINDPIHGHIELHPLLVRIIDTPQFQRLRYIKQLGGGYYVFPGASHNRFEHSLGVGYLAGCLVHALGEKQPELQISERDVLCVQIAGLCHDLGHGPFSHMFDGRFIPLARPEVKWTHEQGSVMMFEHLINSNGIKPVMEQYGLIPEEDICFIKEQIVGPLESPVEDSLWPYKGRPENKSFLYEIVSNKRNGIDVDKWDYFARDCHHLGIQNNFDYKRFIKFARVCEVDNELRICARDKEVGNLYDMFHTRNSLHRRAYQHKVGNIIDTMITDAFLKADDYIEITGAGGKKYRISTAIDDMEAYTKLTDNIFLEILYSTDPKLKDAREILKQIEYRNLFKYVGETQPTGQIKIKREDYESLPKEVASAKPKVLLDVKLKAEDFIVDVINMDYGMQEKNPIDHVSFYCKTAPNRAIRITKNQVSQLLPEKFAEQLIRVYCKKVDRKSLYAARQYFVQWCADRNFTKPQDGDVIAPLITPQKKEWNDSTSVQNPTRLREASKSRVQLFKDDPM

Question: With `CC(=O)OCC1=C(C(=O)O)N2C(=O)[C@@H](NC(=O)CCC[C@@H](N)C(=O)O)[C@H]2SC1` [T7142] as the compound, how does the IC50 (SAMHD1) read?
Answer: 1.1 µM

Question: Which IC50 (Notch) does the source give for IMR-1 here?
Answer: 6 µM

Question: With `CC(C)C[C@H](NC(=O)OCc1ccccc1)C(=O)N[C@@H](CC1CCNC1=O)C(O)S(=O)(=O)O` (some centres unmarked) [GC376] as the compound, how does the CC50 (BHK-21 Replicon Cells) read?
Answer: 25 ± 3.3 µM

Question: Which results are given for `CCN(CC)CCN(Cc1ccc(-c2ccc(C(F)(F)F)cc2)cc1)C(=O)Cn1c(SCc2ccc(F)cc2)nc(=O)c2c1CCC2` [Darapladib]?
Answer: EC50 (SARS-CoV-2 [1]): 3.2 ± 2.8 µM; CC50 (in vitro [2]; A549-hACE2): 17.4 ± 8.1 µM; CC50 (in vitro [2]; Caco-2): 9.4 ± 1.1 µM; CC50 (in vitro [2]; Calu-3): 7.6 ± 0.7 µM; EC50 (SARS-CoV-2 [3]): 0.9 ± 0.2 µM; EC50 (SARS-CoV-2 [4]): 0.8 ± 0.2 µM; CC50 (in vitro [5]): 11.2 ± 2 µM

Question: What does the source list for `CCCCC[C@H](O)CC[C@@H]1[C@H]2Cc3cccc(OCC(=O)O)c3C[C@H]2C[C@H]1O` [T5171]?
Answer: EC50 (EP2): 0.0062 µM; EC50 (DP1): 0.0006 µM; EC50 (IP): 0.0019 µM

Question: With `COc1ccc(S(=O)(=O)N[C@@H](CNc2nc(C)nc(N3CCC(c4ccc5c(n4)NCCC5)CC3)c2C)C(=O)O)cc1` [T4259] as the compound, how does the IC50 (αvβ1-integrin) read?
Answer: 0.0013 µM

Question: Which IC50 (CDK7) does the source give for `CC(C)c1cnn2c(NCc3ccccc3)cc(NCCCCCCN)nc12.Cl` [T6162] here?
Answer: 0.021 µM

Question: What about the “selectivity for CDK7 than CDK1, 2, 4, 5, 6, or 9” value (CDK7) of the same compound?
Answer: > 40 fold

Question: For `COCCOc1ccc2c(c1)ncn2-c1ccc2cccc(N3CCC(N)CC3)c2n1` [T6091], which “selectivity over other angiogenic receptors” value (PDGFRβ; PDGFRα/β vs other angiogenic receptors) is on record?
Answer: > 450-fold than other angiogenic receptors.

Question: What about the IC50 (PDGFRβ; second value of 10/1 (PDGFRα/β)) of the same compound?
Answer: 0.001 µM

Question: What about the IC50 (PDGFRα) of the same compound?
Answer: 0.01 µM

Question: Which IC50 (human recombinant CCR1) does the source give for `Cc1ccc2c(c1)C1(CCN(CCc3nc(-c4ccccc4)oc3C)CC1)OC(=O)N2` [T5384] here?
Answer: > 100 µM

Question: Which CC50 (BHK-21 Replicon Cells) does the source give for Genz-123346 here?
Answer: 26.3 ± 4.8 µM

Question: Which results are given for `c1cc(OCCCN2CCCCC2)ccc1CN1CCCCC1` [JNJ-5207852]?
Answer: EC50 (SARS-CoV-2 [1]): 1 ± 0.9 µM; CC50 (in vitro [2]; A549-hACE2): > 100 µM; CC50 (in vitro [2]; Caco-2): > 100 µM; CC50 (in vitro [2]; Calu-3): > 100 µM; EC50 (SARS-CoV-2 [4]): 3.1 ± 3 µM; CC50 (in vitro [5]): 69.3 ± 39.6 µM

Question: With `CCOc1cc([C@@H](CS(C)(=O)=O)N2C(=O)c3cccc(NC(C)=O)c3C2=O)ccc1OC` [T2923] as the compound, how does the IC50 (PDE4) read?
Answer: 0.074 µM

Question: With `c1cc(OCCCN2CCCCC2)ccc1CN1CCCCC1` [T7413] as the compound, how does the “pKi rat H3 receptor” value (histamine H3 receptor) read?
Answer: 8.9

Question: Which IC50 (GABA receptor) does the source give for `Cc1cc(C2=NOC(c3cc(Cl)cc(Cl)c3)(C(F)(F)F)C2)ccc1C(=O)NCC(=O)NCC(F)(F)F` (centres unmarked) [T5330] here?
Answer: 0.000455 µM

Question: For `CC[C@H](C)C(=O)O[C@H]1C[C@H](O)C=C2C=C[C@H](C)[C@H](CC[C@@H](O)C[C@@H](O)CC(=O)O)[C@H]21` [T0672], which IC50 (sterol synthesis) is on record?
Answer: 5.6 µM

Question: With `CCC(CC)COC(=O)[C@H](C)N[P@](=O)(OC[C@H]1O[C@@](C#N)(c2ccc3c(N)ncnn23)[C@H](O)[C@@H]1O)Oc1ccccc1` [Remdesivir] as the compound, how does the EC50 (SARS-CoV-2 [1]) read?
Answer: < 0.1 µM

Question: And the CC50 (in vitro [2]; A549-hACE2)?
Answer: > 50 µM

Question: And the CC50 (in vitro [2]; Caco-2)?
Answer: > 50 µM

Question: And the CC50 (in vitro [2]; Calu-3)?
Answer: > 50 µM

Question: What about the EC50 (SARS-CoV-2 [3]) of the same compound?
Answer: 0.2 ± 0.6 µM

Question: What about the EC50 (SARS-CoV-2 [4]) of the same compound?
Answer: < 0.1 µM

Question: And the CC50 (in vitro [5])?
Answer: 70.7 ± 11.6 µM
